The record followed here is patent publication US20220073554A1, “LINCOSAMIDE ANTIBIOTICS AND USES THEREOF” (President and Fellows of Harvard College, priority 2017, published 2022).

≈ marks a conversion by molar mass, not a printed value. Where two headings read alike, the source gives them in different places. A value given as a limit tells only on which side of the number the result lay.

What all share (format): cell-based
One assay relates to S. aureus ATCC 29213. In words: MIC against S. aureus ATCC 29213. The note with it: Staphylococcus aureus.
Assay [1] concerns S. aureus MP-549 msr(a) USA 300. In words: MIC against S. aureus MP-549 msr(a) USA 300. Particulars: Staphylococcus aureus, USA300, S. aureus MP-549 msr(a) USA 300.
The subject of the next assay is S. pyogenes ATCC 19615. In words: MIC against S. pyogenes ATCC 19615. Particulars: Streptococcus pyogenes, ATCC19615; S. pyogenes ATCC 19615; read-out: MIC.
The next assay relates to E. faecalis ATCC 29212. Nature of the assay: MIC against E. faecalis ATCC 29212. Particulars: Enterococcus faecalis, ATCC29212, read-out: MIC.
A further assay has as its system E. coli MP-9 ΔTolC. Nature of the assay: MIC against E. coli MP-9 ΔTolC. Particulars: Escherichia coli.
The test system of a further assay is E. coli ATCC 25922. Nature of the assay: MIC against E. coli ATCC 25922. Particulars: Escherichia coli, ATCC25922.
A further assay has as its system K. pneumoniae ATCC 10031. Nature of the assay: MIC against K. pneumoniae ATCC 10031. Particulars: Klebsiella pneumoniae, ATCC10031.
Another assay concerns H. influenzae ATCC 49247. In words: MIC against H. influenzae ATCC 49247. The note with it: Haemophilus influenzae, ATCC49247.
The subject of another assay is S. pneumoniae ATCC 49619. Nature of the assay: MIC against S. pneumoniae ATCC 49619. The note with it: Streptococcus pneumoniae, ATCC49619; S. pneumoniae ATCC 49619; read-out: MIC.
The mark [2] stands for this setting: E. coli ATCC 25922, read-out: MIC.
[3] abbreviates: ATCC29213, S. aureus ATCC 29213, read-out: MIC.
Where [4] appears, read: K. pneumoniae ATCC 10031, read-out: MIC.

Take `CSC1O[C@H]([C@H](NC(=O)[C@H]2NC[C@@H]3C[C@H](c4ccc(C)cc4)CCO[C@H]32)[C@H](C)Cl)C(O)[C@@H](O)[C@H]1O` (stereo partly drawn) [FSA-512079c]: the MIC was 0.5 µg/mL (≈ 0.945 µM) in the assay with S. aureus ATCC 29213 (ATCC29213); 0.5 µg/mL (≈ 0.945 µM) in assay [1]; at most 0.12 µg/mL in the assay with S. pyogenes ATCC 19615; 2 µg/mL (≈ 3.78 µM) in the assay with E. faecalis ATCC 29212; 8 µg/mL (≈ 15.1 µM) against E. coli MP-9 ΔTolC; over 128 µg/mL in the assay on E. coli ATCC 25922 (setting [2]).
Turning to `CCOC(=O)CCN1C[C@@H]2CC=CCO[C@H]2[C@H]1C(=O)N[C@H]([C@H](C)Sc1ccc(-c2cccnc2)cc1)[C@H]1OC(SC)[C@H](O)[C@H](O)C1O` (stereo partly drawn) [FSA-214009b], the MIC in the assay on S. aureus ATCC 29213 (setting [3]) is at least 64 µg/mL; with S. pyogenes ATCC 19615 it was 8 µg/mL (≈ 11.6 µM); with E. faecalis ATCC 29212, over 64 µg/mL; with E. coli ATCC 25922 (setting [2]), over 64 µg/mL.
Take `CSC1O[C@H]([C@H](NC(=O)[C@H]2NC[C@@H]3CC(c4ccc(C)cc4)=CCO[C@H]32)[C@H](C)Cl)C(O)[C@@H](O)[C@H]1O` (stereo partly drawn) [FSA-511019]: the MIC was 0.5 µg/mL (≈ 0.949 µM) against S. aureus ATCC 29213 (ATCC29213); 0.5 µg/mL (≈ 0.949 µM) in assay [1]; 0.195 µg/mL (≈ 0.37 µM) with S. pyogenes ATCC 19615; 4 µg/mL (≈ 7.59 µM) in the assay on E. faecalis ATCC 29212; over 64 µg/mL with K. pneumoniae ATCC 10031 (setting [4]); over 64 µg/mL in the assay on E. coli ATCC 25922 (setting [2]).
As for `COc1ccc([C@@H]2CCO[C@@H]3[C@H](CN[C@@H]3C(=O)N[C@H]([C@H](C)Cl)[C@H]3OC(SC)[C@H](O)[C@H](O)C3O)C2)cc1` (stereo partly drawn) [FSA-512080c], the MIC in the assay on H. influenzae ATCC 49247 (H. influenzae ATCC 49247, read-out: MIC) was found to be 37 µg/mL (≈ 67.9 µM).
Consider `CSC1O[C@H]([C@H](NC(=O)[C@H]2NC[C@@H]3C=C(C#Cc4cccc(F)c4)CCO[C@@H]23)[C@H](C)Cl)C(O)[C@@H](O)[C@H]1O` (stereo partly drawn) [FSA-510003], for which the MIC was 0.5 µg/mL (≈ 0.901 µM) in the assay with S. aureus ATCC 29213 (setting [3]), 1 µg/mL (≈ 1.8 µM) in the assay on E. faecalis ATCC 29212, over 64 µg/mL with E. coli MP-9 ΔTolC and over 64 µg/mL with E. coli ATCC 25922.
Take `CSC1O[C@H]([C@H](NC(=O)[C@H]2NC[C@@H]3C[C@@H](c4ccc(C)cc4)CCO[C@H]32)[C@H](C)Cl)C(O)[C@@H](O)[C@H]1O` (stereo partly drawn) [FSA-512079b]: the MIC is 0.5 µg/mL (≈ 0.945 µM) against S. aureus ATCC 29213 (ATCC29213); 0.5 µg/mL (≈ 0.945 µM) in assay [1]; at most 0.12 µg/mL in the assay on S. pyogenes ATCC 19615; 1 µg/mL (≈ 1.89 µM) in the assay with E. faecalis ATCC 29212; 8 µg/mL (≈ 15.1 µM) against E. coli MP-9 ΔTolC; over 128 µg/mL with E. coli ATCC 25922 (setting [2]).
On to `COc1ccc(C2=CCO[C@@H]3[C@H](CN[C@@H]3C(=O)N[C@H]([C@H](C)Cl)[C@H]3OC(SC)[C@H](O)[C@H](O)C3O)C2)cc1` (stereo partly drawn) [FSA-511020], for which the MIC in the assay with S. aureus ATCC 29213 (setting [3]) is 0.5 µg/mL (≈ 0.921 µM); in [1], 1 µg/mL (≈ 1.84 µM); in the assay on S. pneumoniae ATCC 49619, at most 0.06 µg/mL; with S. pyogenes ATCC 19615, at most 0.06 µg/mL; in the assay on E. faecalis ATCC 29212, 4 µg/mL (≈ 7.37 µM); with K. pneumoniae ATCC 10031 (setting [4]) it was over 64 µg/mL. For the same compound, the MIC in the assay with E. coli ATCC 25922 (setting [2]) is over 64 µg/mL.
Regarding `CSC1O[C@H]([C@H](NC(=O)[C@H]2NC[C@@H]3C=C(c4ccc(C)cc4)CCO[C@@H]23)[C@H](C)Cl)C(O)[C@@H](O)[C@H]1O` (stereo partly drawn) [FSA-512075], the values for the MIC in the assay with S. aureus ATCC 29213 (setting [3]), with E. faecalis ATCC 29212 and in the assay with E. coli ATCC 25922 (setting [2]) were 0.5 µg/mL (≈ 0.949 µM), 2 µg/mL (≈ 3.79 µM) and over 256 µg/mL, respectively.
In the case of `CSC1O[C@H]([C@H](NC(=O)[C@H]2NC[C@@H]3C=C(C#Cc4ccccc4)CCO[C@@H]23)[C@H](C)Cl)C(O)[C@@H](O)[C@H]1O` (stereo partly drawn) [FSA-510002], the MIC in the assay with S. aureus ATCC 29213 (setting [3]) was 0.5 µg/mL (≈ 0.931 µM); in the assay on E. faecalis ATCC 29212 it was 2 µg/mL (≈ 3.72 µM); with E. coli MP-9 ΔTolC, over 64 µg/mL; with E. coli ATCC 25922 it was over 64 µg/mL.
On to `CSC1O[C@H]([C@H](NC(=O)[C@H]2NC[C@@H]3CC(c4cccc5cnccc45)=CCO[C@H]32)[C@H](C)Cl)C(O)[C@@H](O)[C@H]1O` (stereo partly drawn) [FSA-510006], for which the MIC in the assay with S. aureus ATCC 29213 (setting [3]) was 8 µg/mL (≈ 14.2 µM); with S. pneumoniae ATCC 49619, 1 µg/mL (≈ 1.77 µM); with S. pyogenes ATCC 19615, 0.5 µg/mL (≈ 0.886 µM); in the assay on K. pneumoniae ATCC 10031 it was over 64 µg/mL; against E. coli MP-9 ΔTolC, over 64 µg/mL; against H. influenzae ATCC 49247 it was over 64 µg/mL. Further, the MIC against E. coli ATCC 25922 was over 64 µg/mL.
As to `CSC1O[C@H]([C@H](NC(=O)[C@H]2NC[C@@H]3CC(c4ccc(C#N)cc4)=CCO[C@H]32)[C@H](C)Cl)C(O)[C@@H](O)[C@H]1O` (stereo partly drawn) [FSA-511033], the MIC was 0.5 µg/mL (≈ 0.929 µM) with S. aureus ATCC 29213 (setting [3]); 1 µg/mL (≈ 1.86 µM) in assay [1]; at most 0.06 µg/mL in the assay on S. pneumoniae ATCC 49619; at most 0.06 µg/mL with S. pyogenes ATCC 19615; 2 µg/mL (≈ 3.72 µM) in the assay on E. faecalis ATCC 29212; over 64 µg/mL in the assay on E. coli ATCC 25922 (setting [2]).
